The subject of assay [1] is p105 to p50 processing. The assay is described as follows: Proteasome dependent p105 to p50 processing in transfected COS cells (pulse-chase). The format is cell-based, African green monkey. The note with it: 1 h pretreatment, 2 hour chase. Here is the method: COS cells were plated onto 100 mm dishes, then, with DEAE-Destran, either mock transfected, or transfected with 3 μg of pcDNA plasmid containing the human p105 cDNA. Forty-eight hrs after transfection, cells were pretreated for 1 hour with 0.5% DMSO, 50 μM calpain inhibitor II, 50 μM MG132, or 10 μM β-lactone. Cells were then pulse labelled with 250 uCi/plate of ^35S-methionine/cysteine for 15 minutes, and either harvested immediately or followed by a 2 hour chase with excess unlabelled methionine and cysteine. Cells were then lysed with SDS/Tris, and proteins were immunoprecipitated with anti-p50 antibodies (recognize the N-terminal half of the p105 protein). These proteins were then separated on a 10% SDS-polyacrylamide gel, which was then fixed, dried, and exposed to autoradiographic film.

The target in assay [2] is T1, Calpain I (Homo sapiens, UniProt P07384).
T1 sequence (P07384 1-714): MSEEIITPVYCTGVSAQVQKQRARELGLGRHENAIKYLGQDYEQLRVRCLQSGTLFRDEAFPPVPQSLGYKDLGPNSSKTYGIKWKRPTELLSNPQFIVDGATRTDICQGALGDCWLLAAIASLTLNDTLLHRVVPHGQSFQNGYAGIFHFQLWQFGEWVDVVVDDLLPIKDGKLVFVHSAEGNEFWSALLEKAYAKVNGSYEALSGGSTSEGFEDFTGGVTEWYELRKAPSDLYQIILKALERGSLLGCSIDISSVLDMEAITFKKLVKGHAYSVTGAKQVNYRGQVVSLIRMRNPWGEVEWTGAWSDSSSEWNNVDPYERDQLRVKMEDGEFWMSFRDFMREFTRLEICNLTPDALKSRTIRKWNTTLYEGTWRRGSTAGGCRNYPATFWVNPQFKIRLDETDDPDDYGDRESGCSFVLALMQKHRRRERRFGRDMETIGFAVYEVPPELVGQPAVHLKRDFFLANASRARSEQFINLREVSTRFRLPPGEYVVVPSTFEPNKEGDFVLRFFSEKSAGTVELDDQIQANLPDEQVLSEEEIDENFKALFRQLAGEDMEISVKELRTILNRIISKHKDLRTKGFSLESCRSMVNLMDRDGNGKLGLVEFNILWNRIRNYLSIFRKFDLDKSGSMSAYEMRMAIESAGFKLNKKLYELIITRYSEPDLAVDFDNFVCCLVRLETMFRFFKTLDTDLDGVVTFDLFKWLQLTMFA
T1 sequence (P04632 1-268 partner): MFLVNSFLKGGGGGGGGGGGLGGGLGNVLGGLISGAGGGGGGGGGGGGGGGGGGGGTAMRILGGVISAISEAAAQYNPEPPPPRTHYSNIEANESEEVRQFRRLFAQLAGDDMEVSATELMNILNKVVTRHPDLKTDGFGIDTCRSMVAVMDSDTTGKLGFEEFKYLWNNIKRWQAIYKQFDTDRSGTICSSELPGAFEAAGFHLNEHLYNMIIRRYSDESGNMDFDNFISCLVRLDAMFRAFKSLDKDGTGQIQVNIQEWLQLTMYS
The assay is described as follows: Selectivity of protease inhibition: calpain I. It is filed as biochemical. The settings on record: concentration not given.

Turning to `CC(C)[C@H](O)[C@@]12NC(=O)[C@H](C)[C@@H]1OC2=O` [β-Lactone, clasto-lactacystin β-lactone], the “processing of p105 to p50 (level of p50)” value in assay [1] (10 μM) is given as “only a slight effect”. Besides, the “processing of p105 to p50 (appearance of p50)” value in assay [1] (50 μM) was “complete inhibition”. Further, the “inhibition of calpain I activity” value in assay [2] was “do not inhibit”.
